Test results reported in patent US20260305610A1, “TRIAZOLE COMPOUND, AND PREPARATION METHOD THEREFOR, HERBICIDAL COMPOSITION AND USE THEREOF” (QINGDAO KINGAGROOT CHEMICAL COMPOUND CO., LTD., priority 2023, published 2026).

What was measured:
[1] = tested on: monocotyledonous and dicotyledonous weeds; experiment: Pre-emergence test experiment (weeds); format: in vivo; design: key: 9: completely dead; 8: growth control rate is greater than or equal to 90% and less than 100%; 7: growth control rate is greater than or equal to 80% and less than 90%; 6: growth control rate is greater than or equal to 70% and less than 80%; growth control rate is greater than or equal to 50% and less than 70%; 4: growth control rate is greater than or equal to 30% and less than 50%; growth control rate is greater than or equal to 20% and less than 30%; growth control rate is greater than or equal to 10% and less than 20%; growth control rate is less than 10%; 0: no effect; conditions: 30 g a.i./ha
[2] = tested on: major crops; experiment: Pre-emergence test experiment (crops); format: in vivo; design: key: 9: completely dead; 8: growth control rate is greater than or equal to 90% and less than 100%; 7: growth control rate is greater than or equal to 80% and less than 90%; 6: growth control rate is greater than or equal to 70% and less than 80%; growth control rate is greater than or equal to 50% and less than 70%; 4: growth control rate is greater than or equal to 30% and less than 50%; growth control rate is greater than or equal to 20% and less than 30%; growth control rate is greater than or equal to 10% and less than 20%; growth control rate is less than 10%; 0: no effect; conditions: 30 g a.i./ha

SMILES	Pre-emergence activity level (growth control rate) on Amaranthus retroflexus [1]	Pre-emergence activity level (growth control rate) on Descurainia sophia [1]	Pre-emergence activity level (growth control rate) on Digitaria sanguinalis [1]	Pre-emergence activity level (growth control rate) on Setaria viridis [1]	Pre-emergence activity level (growth control rate) on Solanum nigrum [1]	Pre-emergence activity level (growth control rate) on Veronica [1]	Pre-emergence plant damage level (growth control rate) on Corn [2]	Pre-emergence plant damage level (growth control rate) on Cotton [2]	Pre-emergence plant damage level (growth control rate) on Soybean [2]
Cc1ccc(-n2cnc(C(F)(F)F)n2)nc1Oc1cncc(C(F)(F)F)c1 [Compound 11]	9	9	9	9	9	9	0	0	0
Cc1ccc(-n2cnc(C(F)F)n2)nc1Oc1cccc(C(F)F)c1 [Compound 84]	9	9	9	9	9	9	0	0	0
COCc1ccc(-n2cnc(C(F)(F)F)n2)nc1Oc1cccc(OC(F)(F)F)c1 [Compound 145]	9	9	9	9	9	9	0	0	0
Cc1ccc(-n2cnc(C(C)(F)F)n2)nc1Oc1cccc(C(F)(F)F)c1 [Compound 13]	9	9	8 (growth control rate is greater than or equal to 90% and less than 100%)	7 (growth control rate is greater than or equal to 80% and less than 90%)		9	0	0	0
COCc1ccc(-n2cnc(C(F)(F)F)n2)nc1Oc1ccc(F)c(OC(F)F)c1 [Compound 147]	9	9	8 (growth control rate is greater than or equal to 90% and less than 100%)	9	9	9	0	0	0
Cc1ccc(-n2cnc(C(F)(F)C(F)(F)F)n2)nc1Oc1cccc(OC(F)(F)F)c1 [Compound 65]		9	9	9			0	0	0
COCc1ccc(-n2cnc(C(F)(F)F)n2)nc1Oc1cncc(C(F)(F)F)c1 [Compound 142]	9	9	9	9	9		0	0	0
Cc1ccc(-n2cnc(C(F)(F)F)n2)nc1Oc1cccc(C(F)F)c1 [Compound 12]	9	9	9	9	9	9	0	0	0
COCc1ccc(-n2cnc(C(F)(F)F)n2)nc1Oc1ccc(F)c(OC(F)(F)F)c1 [Compound 146]	9	9	8 (growth control rate is greater than or equal to 90% and less than 100%)	9	9	9	0	0	0
Cc1ccc(-n2cnc(C(F)F)n2)nc1Oc1ccc(F)c(C(F)(F)F)c1 [Compound 70]	9	9	9	9	9	9	0	0	0
COCc1ccc(-n2cnc(C(F)(F)F)n2)nc1Oc1cccc(C)c1 [Compound 149]			8 (growth control rate is greater than or equal to 90% and less than 100%)	8 (growth control rate is greater than or equal to 90% and less than 100%)			0	0	0
Cc1cc(Oc2cccc(C(F)(F)F)c2)nc(-n2cnc(C(F)(F)F)n2)c1 [Compound 5]	9	9	9	9	9	9	0	0	0
Cc1ccc(-n2cnc(C(F)(F)F)n2)nc1Oc1cccc(OC(F)(F)F)c1 [Compound 9]	9	9	9	9	9	9	0	0	0
CCc1ccc(-n2cnc(C(F)(F)F)n2)nc1Oc1cccc(C(F)F)c1 [Compound 137]	9	9	8 (growth control rate is greater than or equal to 90% and less than 100%)	9	9	9	0	0	0
Cc1ccc(-n2cnc(C(F)F)n2)nc1Oc1cccc(OC(F)F)c1 [Compound 79]	9	9	9	9	8 (growth control rate is greater than or equal to 90% and less than 100%)	9	0	0	0
FC(F)(F)c1cccc(Oc2nc(-n3cnc(C(F)(F)F)n3)ccc2C2CC2)c1 [Compound 22]	9	9	7 (growth control rate is greater than or equal to 80% and less than 90%)	8 (growth control rate is greater than or equal to 90% and less than 100%)	7 (growth control rate is greater than or equal to 80% and less than 90%)	9	0	0	0
